Experimental data from article PMC4867230 (DNA repair, 2016).

Experiments:
Experiment in all cases: kinetic fluorescence endonuclease assay, purified enzyme
Assay type in all cases: biochemical
[1] = biological target: T1, apurinic/apyrimidinic endonuclease 1 (APE1) (Homo sapiens, UniProt P27695)
[2] = biological target: T1, apurinic/apyrimidinic endonuclease 1 (APE1); remark: listed apart in the source
[3] = biological target: R177A APE1 (Homo sapiens, UniProt P27695, R177A)
Sequence of R177A APE1 (P27695 whole entry R177A): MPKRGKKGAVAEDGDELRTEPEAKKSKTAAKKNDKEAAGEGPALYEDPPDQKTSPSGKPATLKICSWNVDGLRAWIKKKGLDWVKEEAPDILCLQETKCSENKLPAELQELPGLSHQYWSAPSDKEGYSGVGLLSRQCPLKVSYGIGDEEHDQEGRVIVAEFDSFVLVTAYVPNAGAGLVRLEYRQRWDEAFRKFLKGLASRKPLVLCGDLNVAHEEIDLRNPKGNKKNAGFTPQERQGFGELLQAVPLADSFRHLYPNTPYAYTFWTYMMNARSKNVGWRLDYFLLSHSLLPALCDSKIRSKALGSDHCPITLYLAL

T1 sequence (P27695 whole entry): as the sequence (P27695 whole entry R177A) above, with A177R counted along it

Row | IC50 [1] [µM] | EC50 [2] [µM] | EC50 [3] [µM] | SMILES
1 | 65 | – | – | O=C(NCCO)c1cccnc1 [N-(2-hydroxyethyl)nicotinamide]
2 | – | 0.82 | 2.2 | O=C(NCCO[N+](=O)[O-])c1cccnc1 [nicorandil]
